Results published in US20230044449A1, “NICLOSAMIDE FORMULATIONS AND METHODS OF USE AS CONTRACEPTIVE” (YourChoice Therapeutics, Inc., priority 2020, published 2023).
Where two headings read alike, the source gives them in different places.

Experiments:
fresh human semen = assay: Spermicidal effect on mixing with fresh human semen (effective ranges); assay type: cell-based
Method: With niclosamide dissolved in DMSO, a spermicidal effect at ≥10 mM was observed. With niclosamide in formulation, a spermicidal effect at a final concentration between 5 mM and 7.5 mM or higher, was observed. The effective range for niclosamide was determined to be from 5-150 mM. Ranges of: A spermicidal effect at ≥50% (v/v/) was observed when mixing polyethylene glycol-400 (PEG-400) with fresh human semen. The effective range for PEG-400 was determined to be from 50-65%.

[1] = cited from earlier work
[2] = tested on: New Zealand white rabbits; assay: Vaginal irritation study, 7-day intravaginal instillation; assay type: in vivo
Method: Described herein is a study to assess and evaluate vaginal irritation effect of Niclosamide. A total of 9 female New Zealand white rabbits were used for the study described herein. The animals were divided into three groups of three animals in each group: Group 1 (G1) animals treated instilled/treated vehicle control; Group 2 (G2) animals instilled/treated with 2.5 mM dose of niclosamide; and Group 3 (G3) animals instilled/treated with 100 mM dose of niclosamide, as shown in Table 21.
Formulations preparation used for the study were as follows. Vehicle Preparation: 0.85% sodium chloride, 0.1% sorbic acid, 10% lactic acid and 75% water was taken in mortar and pestle and triturated, pH was adjusted to approximately 4.5 using 10 N sodium hydroxide. […] Remaining volume was adjusted with water. Total quantity was triturated again and formulation pH was confirmed with pH paper. […] Total quantity was triturated again and formulation pH was confirmed with pH paper.
Instillation of the treatment was done using prefilled FG-08 tube attached to 1 mL disposable syringe at a dose volume of 1.0 mL per animal continuously for 7 days (from day 1 to 7). Irritation potential was scored in all animals using draize scale daily before Niclosamide instillation and approximately 30 minutes after Niclosamide instillation daily from day 1 to 7 and 24 hours after last test item instillation (day 8). […]

[3] = Saturation solubility in various solvents (PEG grades); assay type: physicochemical
Text: Saturation solubility of niclosamide was studied in the solvents, to know the highest concentration of niclosamide that can be solubilized, as depicted in table 6. [table]

[4] = Solubility in solvents/co-solvents; assay type: physicochemical
Method: Solubility of the drug was determined in selected solvent/co-solvents. About 10 g of the solvent was taken and small amount of drug was added in increments till 500 mg. […] These solutions were further diluted quantitatively to about test concentration and analyzed using chromatograph.

[5] = anhydrous form; cited from earlier work
[6] = Saturation solubility in buffers (shake flask); assay type: physicochemical; settings: 37° C., 24 hours
Method: Solubility was established using 100 mL of each of the chosen buffers, and was conducted using shake flask method. […] Further, the solution was agitated at 37° C. for 24 hours and checked physically for un-dissolved mass. This saturated solution was centrifuged and injected an aliquot in to the chromatograph.

human sperm = assay: Sperm motility of fresh human semen mixed with different concentrations of niclosamide (FIG. 1); assay type: cell-based
Method: FIG. 1 is a graph depicting the dose dependent effect of niclosamide dissolved in DMSO, on sperm motility. Fresh human semen samples were mixed with the different concentrations of niclosamide in vitro, followed by analysis of sperm motility within 2 minutes. The x-axis depicts the different concentrations of niclosamide mixed with the semen sample. The x-axis, from Left to Right: the gray bar depicts an untreated semen sample, the blue bar depicts a vehicle control, and the eight pink bars depict the increasing concentrations of niclosamide tested. […]
Sperm motility is a functional measurement of the sperm themselves. Sperm may be sampled either directly from semen or from washed sperm samples, and assessed for motility either manually or by CASA (Computer Assisted Sperm Analysis) (Chapter 59—Male Reproductive System. Systems Toxicologic Pathology. Dianne M. Creasy, Robert E. Chapin, in Haschek and Rousseaux's Handbook of Toxicologic Pathology (Third Edition), 2013; Amann R P et al. Computer-assisted sperm analysis (CASA): capabilities and potential developments. Theriogenology. 2014 Jan. 1; 81(1):5-17). Sperm motility (expressed as %) may be evaluated in duplicate within 1 h of semen collection, by counting moving and nonmoving sperm in several microscopic fields. […] Slow-moving sperm (class B+C) can be easily and accurately counted compared with rapidly moving (class A) sperm. […]

[7] = Neutral Hydrolysis (3 mL H2O at 100° C. for 8 hours)

In the case of `O=C(Nc1ccc([N+](=O)[O-])cc1Cl)c1cc(Cl)ccc1O` [niclosamide], the “concentration with spermicidal effect” value (fresh human semen; niclosamide dissolved in DMSO) is listed as no less than 10 mM, the “effective range for niclosamide” value (fresh human semen; spermicidal effect) is listed as 5 to 150 mM and the “% Degradation” value ([1]; Acid Hydrolysis (3 mL HCl at 100° C. for 8 hours)) is listed as “No degradation”. For the same compound, the potency after degradation ([1]; Alkaline Hydrolysis (0.1N NaOH at 100° C. for 2 hours)) was “decreased to 97%”, the “% Degradation” value ([1]; Alkaline Hydrolysis (0.1N NaOH at 100° C. for 2 hours), listed as drug substance) was “prone to alkaline hydrolysis” and the “% Degradation, Impurity 1” value [1, 7] was “Impurity 1-0.02%”. For the same compound, the “% Degradation, Impurity 2” value [1, 7] was “Impurity 2-0.03%”, the “% Degradation, Impurity 3” value ([1]; No stress Conditions) was “Impurity 3-0.04%” and the “% Degradation” value ([1]; Oxidative Hydrolysis (3 mL H2O2 at 100° C. for 8 hours)) was “No degradation”. For the same compound, the “% Degradation” value ([1]; Temperature Effect (100° C. for 8 hours)) was “No degradation”, the “% Degradation” value ([1]; UV Exposure for 7 days) was “No degradation” and the “Clinical Signs and Mortality” value ([2]; 2.5 and 100 mM, 1.0 mL per animal intravaginally for 7 days, female rabbits) was “No treatment related mortality and adverse clinical signs”. For the same compound, the “Gross Pathology of vagina” value ([2]; rabbit, in vivo) was “reddened at central lower half to caudal area mildly in all animals belonging to all groups”, the “amount of API solubilised completely” value ([3]; 10 g of PEG-400, stirring and heating at 50° C. for 40 min) was 700 mg was and the “amount of API solubilised completely” value ([3]; 10 g of PEG-1000, stirring and heating at 50° C. for 40 min) was 500 mg was. The “amount of API solubilised completely” value ([3]; 10 g of PEG-2000, stirring and heating at 50° C. for 40 min) was 500 mg was, the maximum solubility ([3]; in PEG-1000, heating and stirring) was 5 % w/w and the maximum solubility ([3]; in PEG-2000, heating and stirring) was 5 % w/w. The Solubility ([4]; polyethylene glycol (PEG 400)) was 47.4 mg/g, the Solubility ([4]; polyethylene glycol (PEG 1000)) was 46.6 mg/g and the Solubility ([4]; polyethylene glycol (PEG 2000)) was 45.6 mg/g. For the same compound, the water solubility [5] was “about 13.32 μg/mL”, the Solubility ([6]; pH 1.2 (0.1N HCl)) was “insoluble and Nil” and the Solubility ([6]; pH 2.0 (0.01N HCl)) was “insoluble and Nil”. For the same compound, the Solubility ([6]; pH 3.0 acid phthalate buffer) was “insoluble and Nil”, the Solubility ([6]; pH 4.0 acid phthalate buffer) was “insoluble and Nil” and the Solubility ([6]; pH 4.5 acetate buffer) was “insoluble and Nil”. For the same compound, the Solubility ([6]; pH 5.1 acetate buffer) was “insoluble and Nil”, the “Minimum dose to see effect (inhibits sperm motility), concentration” value (human sperm; concentration in formulation) was 4 mM and the “effective niclosamide concentration that causes 100% decrease in number of motile sperm cells” value (human sperm; fresh semen, 2 minutes, vs control sample) was no less than 10 mM.
